The values below come from patent publication EP1322622B1, “NEW N, N'-DISUBSTITUTED BENZIMIDAZOLONE DERIVATIVES WITH AFFINITY AT THE SEROTONIN AND DOPAMINE RECEPTORS” (Sprout Pharmaceuticals, Inc., priority 2000, dated 2002).

The term IC50 denotes the point on the concentration scale where inhibition reaches its midpoint.

The target of one test is T1, CHO/5-HT1A cells (Homo sapiens, UniProt P08908).
T1 construct: expressed in transfected cells; host or cells: CHO/5-HT1A cells
T1 sequence (P08908 1-422): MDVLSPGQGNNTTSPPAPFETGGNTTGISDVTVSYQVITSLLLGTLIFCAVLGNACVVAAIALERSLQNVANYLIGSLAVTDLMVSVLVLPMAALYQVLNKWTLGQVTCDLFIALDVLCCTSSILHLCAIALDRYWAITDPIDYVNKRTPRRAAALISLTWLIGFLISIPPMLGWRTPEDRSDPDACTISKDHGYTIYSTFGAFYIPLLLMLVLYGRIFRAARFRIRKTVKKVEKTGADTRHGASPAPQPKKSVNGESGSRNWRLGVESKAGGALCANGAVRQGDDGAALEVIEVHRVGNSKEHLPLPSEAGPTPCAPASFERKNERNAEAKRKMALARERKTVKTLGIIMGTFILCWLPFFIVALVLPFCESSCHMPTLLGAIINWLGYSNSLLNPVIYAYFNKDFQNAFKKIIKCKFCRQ
The test is described as follows: 5-HT1A Functional assay (cAMP). The note with it: 10 µM compound, % inhibition of the cAMP accumulation induced by 10 µM FSK; for inhibition at 10 µM: read-out: 5-HT1A cAMP % inhib. Type of test: cell-based. The procedure: CHO/5-HT1A cells were random seeded at a density of about 200,000/well in 24 well plates the day prior to the experiment. On the day of the experiment, cells were pretreated for 15 min at 37 °C with 500 µM isobuthylmethylxantine (IBMX) dissolved in culture medium without serum. Wells were then divided in different groups in duplicate as follows: control, 10 µM FSK, 10 µM FSK + 1 µM 5-HT as positive standard and 10 µM FSK + 10 µM of the different compound under evaluation. Sample solutions were added and incubated for additional 15 min at 37 °C. After incubation, medium was aspirated and the reaction stopped by adding 200 µl of lysis buffer. Plates were shaken for 5 min, then the lysate was removed and samples were stored at 4 °C until the day of the assay. For the cAMP evaluation, samples were properly diluted and the cAMP content was measured by an enzymeimmunoassay system.

Another test has as its target T2, 5-HT1A human receptors (Homo sapiens, UniProt P08908).
T2 construct: expressed in transfected cells; host or cells: CHO cells
T2 sequence (P08908 1-422): T1 sequence (P08908 1-422)
Nature of the test: 5-HT1A Radioligand Receptor Binding Assay ([3H]-8-OH-DPAT, CHO cell membranes). The following applies: for IC50: [3H]-8-OH-DPAT displacement, CHO membranes, read-out: 5-HT1A receptor binding IC50; for inhibition at 0.1 µM: compound at 10^-7 M, singlicate, [3H]-8-OH-DPAT 0.6-0.7 nM, read-out: 5-HT1A receptor binding assay % inhib. (10^-7 M). Here is the method: Membranes from CHO cells, expressing 5-HT1A human receptors were suspended in incubation buffer.
The compounds were tested in singlicate at one concentration (10^-7 M) in a total volume of 1000 µl. 980 µl of diluted membranes, 10 µl DMSO or unlabelled ligand and 10 µl of [^3H]-8-OH-DPAT (0.6-0.7 nM) were incubated for 60 min at 27 °C. The reaction was stopped by rapid filtration through Tomtec cell Harvester (48 wells) using Filtermat B (presoaked in 0.1% PEI) filters. […] Non specific binding was determined in the presence of 5-HT (10^-5 M).
(§1) The specific radioligand binding to the receptor was defined by the difference between total binding and non specific binding, determined in the presence of an excess of unlabelled ligand. Results were expressed as percentage of control specific binding obtained in the presence of the compounds.
The affinity values (IC50) for the compounds were obtained by a non linear least squares regression analysis on the basis of a one binding site model.

Another test addresses T3, D4 human receptors (Homo sapiens, UniProt P21917).
T3 construct: expressed in transfected cells; host or cells: CHO cells
T3 sequence (P21917 1-419): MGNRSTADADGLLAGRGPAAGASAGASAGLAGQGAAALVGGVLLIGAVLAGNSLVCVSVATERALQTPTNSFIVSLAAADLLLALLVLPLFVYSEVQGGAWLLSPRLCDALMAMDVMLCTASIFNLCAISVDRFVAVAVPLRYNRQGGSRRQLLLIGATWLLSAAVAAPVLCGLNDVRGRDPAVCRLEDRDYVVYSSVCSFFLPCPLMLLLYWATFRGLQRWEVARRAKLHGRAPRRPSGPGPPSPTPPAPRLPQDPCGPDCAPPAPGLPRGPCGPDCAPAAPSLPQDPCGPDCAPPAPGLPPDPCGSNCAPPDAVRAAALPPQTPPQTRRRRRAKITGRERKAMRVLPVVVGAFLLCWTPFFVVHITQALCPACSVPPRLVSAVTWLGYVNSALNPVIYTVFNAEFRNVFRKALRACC
Nature of the test: D4 Radioligand Receptor Binding Assay ([3H] YM-09151-2, CHO cell membranes). The note with it: compound at 10^-7 M, singlicate; [3H] YM-09151-2 0.15-0.25 nM; read-out: D4 receptor binding assay % inhib. (10^-7 M). Here is the method:
Membranes from CHO cells, expressing D4 human receptors were suspended in incubation buffer.
Binding assays were performed in MultiProbe 204 pipetting system (Packard), according to a predetermined mapping, consistent with the software Screen. The compounds were tested in singlicate at one concentration (10^-7 M) in a total volume of 1000 µl (980 µl of diluted membranes, 10 µl DMSO or unlabelled ligand and 10 µl of [^3H] YM-09151-2 (0.15-0.25 nM). After incubation for 120 min at 27 °C, the reaction was stopped by rapid filtration through Tomtec cell Harvester (48 wells) using Filtermat B (presoaked in 0.1% PEI) filters. Filters were washed with ice-cold 50 mM Tris-HCl (pH 7.4) buffer (9 x 700 µl), dryed, covered with MeltiLex B/HS (Wallac) scintillator sheets and heated in oven at 80-90 °C for about 10 min, transferred into plastic sample bags (Wallac), sealed and put into 1024 Beta Plate scintillation counter (Wallac). Non specific binding was determined in the presence of clozapine dissolved in DMSO to a final concentration of 10^-5 M.
as §1

For the compound `CCNC(=O)OCCn1c(=O)n(CCN2CCN(c3cccc(Cl)c3)CC2)c2ccccc21` [compound 202], at CHO/5-HT1A cells, the inhibition at 10 µM is 72%. Further, the IC50 at 5-HT1A human receptors was 1.7 nM.
The like results for `CCNC(=O)OCCn1c(=O)n(CCN2CCN(c3cccc(C)c3)CC2)c2ccccc21` [compound 217] were, in that order, 68% and 5.2 nM.
On to `O=c1n(C/C=C\CN2CCN(c3cccc(Cl)c3)CC2)c2ccccc2n1CCN1CCOCC1` [compound 263], for which the inhibition at 10 µM on CHO/5-HT1A cells is 63%.
Regarding `COCCn1c(=O)n(CC=CCN2CCN(c3cccc(C(F)(F)F)c3)CC2)c2ccccc21` [compound 284], the inhibition at 10 µM on CHO/5-HT1A cells was found to be 82%.
Same read-out and setting: then `COCCn1c(=O)n(C/C=C/CN2CCN(c3ccccn3)CC2)c2ccccc21` [compound 296], with 82%; and `COCCn1c(=O)n(C/C=C/CN2CCN(c3cccc(Cl)c3)CC2)c2ccccc21` [compound 297], with 74%.
Consider `COCCn1c(=O)n(CC=CCN2CCN(c3cccc(C(F)(F)F)c3)CC2)c2ccccc21` [compound 301], for which the “5-HT1A cAMP % inhib.” value at CHO/5-HT1A cells worked out at 83%.
Regarding `O=c1n(C/C=C\CN2CCc3c([nH]c4ccccc34)C2)c2ccccc2n1CCN1CCCCC1` [compound 316], the values for the inhibition at 0.1 µM at 5-HT1A human receptors and on D4 human receptors were 72% and 94%, respectively.
The like results for `O=c1n(C/C=C\CN2CC=C(c3ccccc3)CC2)c2ccccc2n1CCN1CCCCC1` [compound 319] were, in that order, 94% and 70%.
Regarding `O=c1n(C/C=C/CN2CCN(c3ccccn3)CC2)c2ccccc2n1CCN1CCOCC1` [compound 347], the inhibition at 10 µM at CHO/5-HT1A cells came out at 65%.
In the case of `O=c1n(C/C=C/CN2CCN(c3cccc(Cl)c3)CC2)c2ccccc2n1CCN1CCOCC1` [compound 348], the inhibition at 0.1 µM on 5-HT1A human receptors is 99%; on D4 human receptors it was 51%.
In the case of `O=c1n(C/C=C/CN2CCN(c3cccc(C(F)(F)F)c3)CC2)c2ccccc2n1CCN1CCOCC1` [compound 352], the inhibition at 10 µM at CHO/5-HT1A cells is 79%.
Turning to `O=c1n(C/C=C\CN2CCN(c3ccccc3)CC2)c2ccccc2n1CCO` [compound 361], the inhibition at 0.1 µM on 5-HT1A human receptors stood at 86%; at D4 human receptors, 46%.
As to `O=c1n(C/C=C\CN2CCN(c3ccccn3)CC2)c2ccccc2n1CCO` [compound 364], the inhibition at 0.1 µM at 5-HT1A human receptors amounted to 77%; at D4 human receptors, 36%.
With `O=c1n(C/C=C\CN2CCN(c3cccc(Cl)c3)CC2)c2ccccc2n1CCO` [compound 365], the inhibition at 10 µM at CHO/5-HT1A cells came out at 82%. Further, at 5-HT1A human receptors, the inhibition at 0.1 µM was determined as 89%.
On to `O=c1n(C/C=C\CN2CCc3c([nH]c4ccccc34)C2)c2ccccc2n1CCO` [compound 367], for which the values for the inhibition at 0.1 µM at 5-HT1A human receptors and on D4 human receptors were 61% and 90%, respectively.
Turning to `O=c1n(C/C=C\CN2CCN(c3ccc(Cl)c(Cl)c3)CC2)c2ccccc2n1CCO` [compound 371], the inhibition at 0.1 µM was 59% at 5-HT1A human receptors and 95% at D4 human receptors.
The like results for `O=c1n(C/C=C/CN2CCN(c3ccccc3)CC2)c2ccccc2n1CCO` [compound 378] were, in that order, 77% and 35%.
Consider `O=c1n(C/C=C/CN2CCN(c3ccccn3)CC2)c2ccccc2n1CCO` [compound 381], for which the inhibition at 10 µM on CHO/5-HT1A cells is 79%.
On to `CCNC(=O)OCCn1c(=O)n(C/C=C\CN2CCN(c3ccccc3)CC2)c2ccccc21` [compound 395], for which the inhibition at 0.1 µM is 86% at 5-HT1A human receptors and 32% on D4 human receptors.
As for `CCNC(=O)OCCn1c(=O)n(CC=CCN2CCN(c3cccc(C(F)(F)F)c3)CC2)c2ccccc21` [compound 403], the inhibition at 10 µM on CHO/5-HT1A cells came to 84%.
Consider `CCNC(=O)OCCn1c(=O)n(C/C=C/CN2CCN(c3ccccc3)CC2)c2ccccc21` [compound 412], for which the inhibition at 0.1 µM was 93% at 5-HT1A human receptors and 39% on D4 human receptors.
As for `CCNC(=O)OCCn1c(=O)n(C/C=C/CN2CCN(c3ccccn3)CC2)c2ccccc21` [compound 415], the inhibition at 10 µM at CHO/5-HT1A cells came out at 82%.
On to `CCNC(=O)OCCn1c(=O)n(CC=CCN2CCN(c3cccc(C(F)(F)F)c3)CC2)c2ccccc21` [compound 420], for which the “5-HT1A cAMP % inhib.” value on CHO/5-HT1A cells stood at 87%.
As for `CCNC(=O)OCCn1c(=O)n(CC=CCN2CC=C(c3ccccc3)CC2)c2ccccc21` [compound 421], the “5-HT1A cAMP % inhib.” value at CHO/5-HT1A cells came out at 56%.
As to `CC(=O)NCCn1c(=O)n(C/C=C\CN2CCN(c3cccc(C(F)(F)F)c3)CC2)c2ccccc21` [compound 459], the inhibition at 10 µM on CHO/5-HT1A cells turned out to be 86%.
Same read-out and setting: then `CC(=O)NCCn1c(=O)n(C/C=C\CN2CCN(c3ccccc3Cl)CC2)c2ccccc21` [compound 472], with 67%; and `CS(=O)(=O)NCCn1c(=O)n(CC=CCN2CCN(c3cccc(Cl)c3)CC2)c2ccccc21` [compound 499], with 74%.
In the case of `CS(=O)(=O)NCCn1c(=O)n(C/C=C\CN2CCc3c([nH]c4ccccc34)C2)c2ccccc21` [compound 501], the inhibition at 0.1 µM at 5-HT1A human receptors came to 70%; on D4 human receptors it was 63%.
Turning to `CS(=O)(=O)NCCn1c(=O)n(C/C=C\CN2CCN(c3cccc(C(F)(F)F)c3)CC2)c2ccccc21` [compound 503], at CHO/5-HT1A cells, the inhibition at 10 µM came out at 87%.
On to `CS(=O)(=O)NCCn1c(=O)n(C/C=C\CN2CCN(c3ccc(Cl)c(Cl)c3)CC2)c2ccccc21` [compound 505], for which the inhibition at 0.1 µM at 5-HT1A human receptors is 78%; on D4 human receptors, 58%.
In the case of `Cc1cccc(N2CCN(C/C=C\Cn3c(=O)n(CCNS(C)(=O)=O)c4ccccc43)CC2)c1C` [compound 512], the inhibition at 10 µM at CHO/5-HT1A cells is 68%.
Same read-out and setting: then `Cc1cccc(N2CCN(CC=CCn3c(=O)n(CCNS(C)(=O)=O)c4ccccc43)CC2)c1` [compound 514], with 67%.
As to `CS(=O)(=O)NCCn1c(=O)n(C/C=C/CN2CCN(c3ccccn3)CC2)c2ccccc21` [compound 520], at CHO/5-HT1A cells, the inhibition at 10 µM was found to be 70%.
Consider `CS(=O)(=O)NCCn1c(=O)n(CC=CCN2CCN(c3cccc(Cl)c3)CC2)c2ccccc21` [compound 521], for which the “5-HT1A cAMP % inhib.” value on CHO/5-HT1A cells is reported as 67%.
Consider `CS(=O)(=O)NCCn1c(=O)n(C/C=C/CN2CCN(c3ccc(Cl)c(Cl)c3)CC2)c2ccccc21` [compound 527], for which the inhibition at 0.1 µM at 5-HT1A human receptors came to 73%; on D4 human receptors it was 36%.
Turning to `COc1ccccc1N1CCN(C/C=C/Cn2c(=O)n(CCNS(C)(=O)=O)c3ccccc32)CC1` [compound 535], the values for the inhibition at 0.1 µM at 5-HT1A human receptors and at D4 human receptors were 97% and 39%, respectively.
